Laboratory results: patent US20260284079A1, “LIPID PRODRUGS OF ALLOPR[…] USES THEREOF” (Seaport Therapeutics, Inc., priority 2023, published 2026)

Assay: Safety and tolerability, treatment-emergent adverse events (Example 1)
Assay type: in vivo, human
Conditions: for Any TEAE, subjects (%): 9 subjects
Description: As used herein, the term “Adverse Event” refers to any event, side-effect, or other untoward medical occurrence in a subject (i.e., a clinical study participant) administered a pharmaceutical product. […] As used herein, a “treatment-emergent adverse event” or “TEAE” refers to an adverse event not present prior to treatment (i.e., receiving a dose of Compound 1) or an already present event that worsens in intensity or frequency following treatment. TEAEs may be classified by system organ class (SOC); an exemplary SOC is Nervous System Disorders. Examples of Nervous System Disorder TEAEs include somnolence, headache, dizziness, lethargy, balance disorder, and cognitive disorder.
A three-part study to assess the safety, tolerability, and PK/PD properties of Compound 1 in humans was performed. Part 1 was a randomized, double-blinded, placebo-controlled, single ascending dose (SAD) phase. Part 2 was a randomized, open-label phase to assess the effect of food on Compound 1. Part 3 was a randomized, double-blinded, placebo-controlled multiple-ascending dose phase.
Part 1 Primary Objectives: to evaluate the safety and tolerability of single oral doses of Compound 1 and to determine the maximum tolerated dose (MTD) following ascending single oral doses of Compound 1. Part 1 Primary Endpoints: incidence, severity, and duration of treatment-emergent adverse events (TEAEs), serious adverse events (SAEs), and incidence of clinically significant vital signs, pulse oximetry, ECGs, safety laboratory, or physical examination findings and MTD of Compound 1 in healthy subjects.
The safety, tolerability, and PK of Compound 1 administered as multiple doses (up to 7 days) was determined. Subjects in cohorts 4-6 were administered Compound 1 once daily in the morning (QAM) in a fed state. Subjects in cohorts 7-8 were administered Compound 1 once daily in the evening (QHS) in a fed state.
Part 3 Primary Objective: to evaluate the safety and tolerability of multiple oral doses of Compound 1 and to determine the maximum tolerated dose of Compound 1 following multiple oral doses. Part 3 Primary Endpoints: incidence, severity, and duration of treatment-emergent adverse events, […], and incidence of clinically significant vital signs, pulse oximetry, ECGs, safety laboratory, or physical examination findings, and the maximum tolerated dose of Compound 1 in healthy subjects.

CCCCCCCC(=O)OCC(COC(=O)CCCCCCC)OC(=O)CC(C)CC(=O)OCOC(=O)O[C@@H]1CC[C@@]2(C)[C@@H](CC[C@@H]3[C@@H]2CC[C@]2(C)[C@@H](C(C)=O)CC[C@@H]32)C1 (stereo partly drawn) [Compound 1]
tolerability across dose levels tested (Example 1, Parts 1-3): generally well tolerated | TEAE Abnormal Dreams (Psychiatric Disorders), subjects (%) (MAD Cohort 4, 250 mg QAM): 0 | TEAE Balance Disorder (Nervous System Disorders), subjects (%) (MAD Cohort 4, 250 mg QAM): 0 | TEAE Cognitive Disorder (Nervous System Disorders), subjects (%) (MAD Cohort 4, 250 mg QAM): 0 | TEAE Diarrhoea (Gastrointestinal Disorders), subjects (%) (MAD Cohort 4, 250 mg QAM): 0 | TEAE Disturbance in attention (Nervous System Disorders), subjects (%) (MAD Cohort 4, 250 mg QAM): 0 | TEAE Dizziness (Nervous System Disorders), subjects (%) (MAD Cohort 4, 250 mg QAM): 0 | TEAE Euphoric Mood (Psychiatric Disorders), subjects (%) (MAD Cohort 4, 250 mg QAM): 0 | TEAE Fatigue (General Disorders and Administration Site Conditions), subjects (%) (MAD Cohort 4, 250 mg QAM): 0 | TEAE Hallucination, Visual (Psychiatric Disorders), subjects (%) (MAD Cohort 4, 250 mg QAM): 0 | TEAE Headache (Nervous System Disorders), subjects (%) (MAD Cohort 4, 250 mg QAM): 0 | TEAE Lethargy (Nervous System Disorders), subjects (%) (MAD Cohort 4, 250 mg QAM): 0 | TEAE Rhinorrhoea (Respiratory, Thoracic, and Mediastinal Disorders), subjects (%) (MAD Cohort 4, 250 mg QAM): 0 | TEAE Sedation (Nervous System Disorders), subjects (%) (MAD Cohort 4, 250 mg QAM): 0 | TEAE Somnolence (Nervous System Disorders), subjects (%) (MAD Cohort 4, 250 mg QAM): 7 (77.8%) | Any TEAE, subjects (%) (MAD Cohort 4, 250 mg QAM): 7 (77.8%) | TEAE Abnormal Dreams (Psychiatric Disorders), subjects (%) (MAD Cohort 5, 375 mg QAM): 1 (11.1%) | TEAE Balance Disorder (Nervous System Disorders), subjects (%) (MAD Cohort 5, 375 mg QAM): 0 | TEAE Cognitive Disorder (Nervous System Disorders), subjects (%) (MAD Cohort 5, 375 mg QAM): 1 (11.1%) | TEAE Diarrhoea (Gastrointestinal Disorders), subjects (%) (MAD Cohort 5, 375 mg QAM): 0 | TEAE Disturbance in attention (Nervous System Disorders), subjects (%) (MAD Cohort 5, 375 mg QAM): 0 | TEAE Dizziness (Nervous System Disorders), subjects (%) (MAD Cohort 5, 375 mg QAM): 0 | TEAE Euphoric Mood (Psychiatric Disorders), subjects (%) (MAD Cohort 5, 375 mg QAM): 0 | TEAE Fatigue (General Disorders and Administration Site Conditions), subjects (%) (MAD Cohort 5, 375 mg QAM): 0 | TEAE Hallucination, Visual (Psychiatric Disorders), subjects (%) (MAD Cohort 5, 375 mg QAM): 0 | TEAE Headache (Nervous System Disorders), subjects (%) (MAD Cohort 5, 375 mg QAM): 0 | TEAE Lethargy (Nervous System Disorders), subjects (%) (MAD Cohort 5, 375 mg QAM): 0 | TEAE Rhinorrhoea (Respiratory, Thoracic, and Mediastinal Disorders), subjects (%) (MAD Cohort 5, 375 mg QAM): 0 | TEAE Sedation (Nervous System Disorders), subjects (%) (MAD Cohort 5, 375 mg QAM): 0 | TEAE Somnolence (Nervous System Disorders), subjects (%) (MAD Cohort 5, 375 mg QAM): 6 (66.7%) | Any TEAE, subjects (%) (MAD Cohort 5, 375 mg QAM): 6 (66.7%) | TEAE Abnormal Dreams (Psychiatric Disorders), subjects (%) (MAD Cohort 6, 500 mg QAM): 0 | TEAE Balance Disorder (Nervous System Disorders), subjects (%) (MAD Cohort 6, 500 mg QAM): 7 (77.8%) | TEAE Cognitive Disorder (Nervous System Disorders), subjects (%) (MAD Cohort 6, 500 mg QAM): 4 (44.4%) | TEAE Diarrhoea (Gastrointestinal Disorders), subjects (%) (MAD Cohort 6, 500 mg QAM): 0 | TEAE Disturbance in attention (Nervous System Disorders), subjects (%) (MAD Cohort 6, 500 mg QAM): 1 (11.1%) | TEAE Dizziness (Nervous System Disorders), subjects (%) (MAD Cohort 6, 500 mg QAM): 1 (11.1%) | TEAE Euphoric Mood (Psychiatric Disorders), subjects (%) (MAD Cohort 6, 500 mg QAM): 1 (11.1%) | TEAE Fatigue (General Disorders and Administration Site Conditions), subjects (%) (MAD Cohort 6, 500 mg QAM): 0 | TEAE Hallucination, Visual (Psychiatric Disorders), subjects (%) (MAD Cohort 6, 500 mg QAM): 1 (11.1%) | TEAE Headache (Nervous System Disorders), subjects (%) (MAD Cohort 6, 500 mg QAM): 0 | TEAE Lethargy (Nervous System Disorders), subjects (%) (MAD Cohort 6, 500 mg QAM): 1 (11.1%) | TEAE Rhinorrhoea (Respiratory, Thoracic, and Mediastinal Disorders), subjects (%) (MAD Cohort 6, 500 mg QAM): 0 | TEAE Sedation (Nervous System Disorders), subjects (%) (MAD Cohort 6, 500 mg QAM): 0 | TEAE Somnolence (Nervous System Disorders), subjects (%) (MAD Cohort 6, 500 mg QAM): 9 (100%) | Any TEAE, subjects (%) (MAD Cohort 6, 500 mg QAM): 9 (100%) | TEAE Abnormal Dreams (Psychiatric Disorders), subjects (%) (MAD Cohort 7, 375 mg QHS): 0 | TEAE Balance Disorder (Nervous System Disorders), subjects (%) (MAD Cohort 7, 375 mg QHS): 2 | TEAE Cognitive Disorder (Nervous System Disorders), subjects (%) (MAD Cohort 7, 375 mg QHS): 2 (22.2%) | TEAE Diarrhoea (Gastrointestinal Disorders), subjects (%) (MAD Cohort 7, 375 mg QHS): 1 (11.1%) | TEAE Disturbance in attention (Nervous System Disorders), subjects (%) (MAD Cohort 7, 375 mg QHS): 1 (11.1%) | TEAE Dizziness (Nervous System Disorders), subjects (%) (MAD Cohort 7, 375 mg QHS): 1 (11.1%) | TEAE Euphoric Mood (Psychiatric Disorders), subjects (%) (MAD Cohort 7, 375 mg QHS): 1 (11.1%) | TEAE Fatigue (General Disorders and Administration Site Conditions), subjects (%) (MAD Cohort 7, 375 mg QHS): 0 | TEAE Hallucination, Visual (Psychiatric Disorders), subjects (%) (MAD Cohort 7, 375 mg QHS): 0 | TEAE Headache (Nervous System Disorders), subjects (%) (MAD Cohort 7, 375 mg QHS): 1 (11.1%) | TEAE Lethargy (Nervous System Disorders), subjects (%) (MAD Cohort 7, 375 mg QHS): 0 | TEAE Rhinorrhoea (Respiratory, Thoracic, and Mediastinal Disorders), subjects (%) (MAD Cohort 7, 375 mg QHS): 0 | TEAE Sedation (Nervous System Disorders), subjects (%) (MAD Cohort 7, 375 mg QHS): 0 | TEAE Somnolence (Nervous System Disorders), subjects (%) (MAD Cohort 7, 375 mg QHS): 5 (55.6%) | Any TEAE, subjects (%) (MAD Cohort 7, 375 mg QHS): 6 (66.7%) | TEAE Abnormal Dreams (Psychiatric Disorders), subjects (%) (MAD Cohort 8, 375 mg QHS): 0 | TEAE Balance Disorder (Nervous System Disorders), subjects (%) (MAD Cohort 8, 375 mg QHS): 0 | TEAE Cognitive Disorder (Nervous System Disorders), subjects (%) (MAD Cohort 8, 375 mg QHS): 0 | TEAE Diarrhoea (Gastrointestinal Disorders), subjects (%) (MAD Cohort 8, 375 mg QHS): 0 | TEAE Disturbance in attention (Nervous System Disorders), subjects (%) (MAD Cohort 8, 375 mg QHS): 0 | TEAE Dizziness (Nervous System Disorders), subjects (%) (MAD Cohort 8, 375 mg QHS): 0 | TEAE Euphoric Mood (Psychiatric Disorders), subjects (%) (MAD Cohort 8, 375 mg QHS): 0 | TEAE Fatigue (General Disorders and Administration Site Conditions), subjects (%) (MAD Cohort 8, 375 mg QHS): 0 | TEAE Hallucination, Visual (Psychiatric Disorders), subjects (%) (MAD Cohort 8, 375 mg QHS): 0 | TEAE Headache (Nervous System Disorders), subjects (%) (MAD Cohort 8, 375 mg QHS): 0 | TEAE Lethargy (Nervous System Disorders), subjects (%) (MAD Cohort 8, 375 mg QHS): 0 | TEAE Rhinorrhoea (Respiratory, Thoracic, and Mediastinal Disorders), subjects (%) (MAD Cohort 8, 375 mg QHS): 0 | TEAE Sedation (Nervous System Disorders), subjects (%) (MAD Cohort 8, 375 mg QHS): 1 (11.1%) | TEAE Somnolence (Nervous System Disorders), subjects (%) (MAD Cohort 8, 375 mg QHS): 1 (11.1%) | Any TEAE, subjects (%) (MAD Cohort 8, 375 mg QHS): 2 (22.2%) | effect of food on safety or tolerability (Part 2, 140 mg): Food did not impact safety or tolerability | most common adverse event (most frequently at doses greater than or equal to 500 mg): somnolence
